Test results from PubChem BioAssay AID2060890 (Molecular Pharmacology Branch, DTP, NCI, 2025).
Values joined by “and” are separate entries in the source; they are usually repeats but may differ in a detail not shown here. Identical values can stand only once.

System: LG0703-F948-PDC complex spheroid viability
Experiment: Anticancer human tumor LG0703-F948-PDC patient-derived lung adenocarcinoma cell line growth inhibition [RAS]
Details: for viability, T/C: stronger effect = lower value
Procedure, shortened: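 Multi-cell-type spheroids: tumor cells plus HUVEC endothelial cells and mesenchymal stem cells. RAS-pathway inhibitors were combined with targeted agents, each dosed in half-log steps down from clinical Cmax, or from 10 microM when Cmax was unknown.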

[1] = curve of first compound, second compound 0.000949 µM
[2] = curve of first compound, second compound 0.003 µM
[3] = curve of first compound, second compound 0.00949 µM
[4] = curve of first compound, second compound 0.03 µM
[5] = curve of first compound, second compound 0.0949 µM
[6] = curve of first compound, second compound 0.3 µM
[7] = second compound 0.000949 µM, first compound 0.0316 µM
[8] = second compound 0.000949 µM, first compound 0.1 µM
[9] = second compound 0.000949 µM, first compound 0.316 µM
[10] = second compound 0.000949 µM, first compound 1 µM
[11] = second compound 0.003 µM, first compound 0.0316 µM
[12] = second compound 0.003 µM, first compound 0.1 µM
[13] = second compound 0.003 µM, first compound 0.316 µM
[14] = second compound 0.003 µM, first compound 1 µM
[15] = second compound 0.00949 µM, first compound 0.0316 µM
[16] = second compound 0.00949 µM, first compound 0.1 µM
[17] = second compound 0.00949 µM, first compound 0.316 µM
[18] = second compound 0.00949 µM, first compound 1 µM
[19] = second compound 0.03 µM, first compound 0.0316 µM
[20] = second compound 0.03 µM, first compound 0.1 µM
[21] = second compound 0.03 µM, first compound 0.316 µM
[22] = second compound 0.03 µM, first compound 1 µM
[23] = second compound 0.0949 µM, first compound 0.0316 µM
[24] = second compound 0.0949 µM, first compound 0.1 µM
[25] = second compound 0.0949 µM, first compound 0.316 µM
[26] = second compound 0.0949 µM, first compound 1 µM
[27] = second compound 0.3 µM, first compound 0.0316 µM
[28] = second compound 0.3 µM, first compound 0.1 µM
[29] = second compound 0.3 µM, first compound 0.316 µM
[30] = second compound 0.3 µM, first compound 1 µM
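Further: spheroids exposed to agents for 7 days.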
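Wherever viability, T/C is given: 100% = DMSO vehicle wells.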

`CC(C)n1nc(-c2ccc3oc(N)nc3c2)c2c(N)ncnc21` + C=CC(=O)N1CCN(c2nc(OCC3CCCN3C)nc3c(F)c(-c4nc(N)cc(C)c4C(F)(F)F)c(Cl)cc23)C(C)C1 was tested, and the IC50 (curve of first compound, second compound 0.00316 µM) was 2.63 nM, the IC50 (curve of first compound, second compound 0.01 µM) was 4.04 nM and the IC50 (curve of first compound, second compound 0.0316 µM) was 3.57 nM. For the same compound, the IC50 (curve of first compound, second compound 0.1 µM) was 3.98 nM, the IC50 (curve of first compound, second compound 0.316 µM) was 4.22 nM and the IC50 (curve of first compound, second compound 1 µM) was 4.58 nM. It also gave a viability, T/C (second compound 0.00316 µM, first compound 0.000316 µM) of 90.6%, a viability, T/C (second compound 0.00316 µM, first compound 0.001 µM) of 65.3% and a viability, T/C (second compound 0.00316 µM, first compound 0.00316 µM) of 49.1%. For the same compound, the viability, T/C (second compound 0.00316 µM, first compound 0.01 µM) was 29.7%, the viability, T/C (second compound 0.00316 µM, first compound 0.0316 µM) was 12.6% and the viability, T/C (second compound 0.00316 µM, first compound 0.1 µM) was 7.5%. For the same compound, the viability, T/C (second compound 0.01 µM, first compound 0.000316 µM) was 92.8%, the viability, T/C (second compound 0.01 µM, first compound 0.001 µM) was 79.9% and the viability, T/C (second compound 0.01 µM, first compound 0.00316 µM) was 55.6%. It also gave a viability, T/C (second compound 0.01 µM, first compound 0.01 µM) of 29.7%, a viability, T/C (second compound 0.01 µM, first compound 0.0316 µM) of 12.3% and a viability, T/C (second compound 0.01 µM, first compound 0.1 µM) of 7.9%. The viability, T/C (second compound 0.0316 µM, first compound 0.000316 µM) was 94.8%, the viability, T/C (second compound 0.0316 µM, first compound 0.001 µM) was 76% and the viability, T/C (second compound 0.0316 µM, first compound 0.00316 µM) was 52.3%. The viability, T/C (second compound 0.0316 µM, first compound 0.01 µM) was 30.9%, the viability, T/C (second compound 0.0316 µM, first compound 0.0316 µM) was 12.8% and the viability, T/C (second compound 0.0316 µM, first compound 0.1 µM) was 6.67%. The viability, T/C (second compound 0.1 µM, first compound 0.000316 µM) was 106%, the viability, T/C (second compound 0.1 µM, first compound 0.001 µM) was 78.3% and the viability, T/C (second compound 0.1 µM, first compound 0.00316 µM) was 57.6%. For the same compound, the viability, T/C (second compound 0.1 µM, first compound 0.01 µM) was 31.4%, the viability, T/C (second compound 0.1 µM, first compound 0.0316 µM) was 14.3% and the viability, T/C (second compound 0.1 µM, first compound 0.1 µM) was 8.14%. It also gave a viability, T/C (second compound 0.316 µM, first compound 0.000316 µM) of 103%, a viability, T/C (second compound 0.316 µM, first compound 0.001 µM) of 79.3% and a viability, T/C (second compound 0.316 µM, first compound 0.00316 µM) of 59%. It also gave a viability, T/C (second compound 0.316 µM, first compound 0.01 µM) of 31.5%, a viability, T/C (second compound 0.316 µM, first compound 0.0316 µM) of 12.9% and a viability, T/C (second compound 0.316 µM, first compound 0.1 µM) of 7.55%. The viability, T/C (second compound 1 µM, first compound 0.000316 µM) was 114%, the viability, T/C (second compound 1 µM, first compound 0.001 µM) was 84.8% and the viability, T/C (second compound 1 µM, first compound 0.00316 µM) was 59.2%. It also gave a viability, T/C (second compound 1 µM, first compound 0.01 µM) of 34.3%, a viability, T/C (second compound 1 µM, first compound 0.0316 µM) of 13.9% and a viability, T/C (second compound 1 µM, first compound 0.1 µM) of 6.36%.

In the case of `NC1c2ccccc2OC12CCN(c1cnc3c(N4CCCc5ncccc54)n[nH]c3n1)CC2` (centres undefined), the viability, T/C (compound 0.0316 µM) is reported as 50.5% [middle of 4 runs], the viability, T/C (compound 0.1 µM) is reported as 31.6% [middle of 4 runs] and the viability, T/C (compound 0.316 µM) is reported as 20.4% [middle of 4 runs]. For the same compound, the viability, T/C (compound 1 µM) was 13.1% [middle of 4 runs], the viability, T/C (compound 3.16 µM) was 5.94% [middle of 4 runs] and the viability, T/C (compound 10 µM) was 2.92% [middle of 4 runs]. For the same compound, the IC50 (curve of compound) was < 31.6 nM and 59 nM.

`CCC(CC)c1cc(NC2CCC(N)C2)n2nccc2n1` (centres undefined) + CCn1c(-c2cccnc2C(C)OC)c2c3cc(ccc31)N1CCOC(CC(NC(=O)C(C(C)C)N(C)C(=O)C3(F)CCN(C(=O)C#CC(C)(C)N(C)C)CC3)C(=O)N3CCCC(N3)C(=O)OCC(C)(C)C2)C1 showed an IC50 [1] of 964 nM, an IC50 [2] of 1040 nM and an IC50 [3] of 1600 nM. It also gave an IC50 [4] of 1090 nM, an IC50 [5] of 360 nM and an IC50 [6] of under 31.6 nM. For the same compound, the viability, T/C [7] was 104%, the viability, T/C [8] was 89.9% and the viability, T/C [9] was 79.8%. The viability, T/C [10] was 54%, the viability, T/C (second compound 0.000949 µM, first compound 3.16 µM) was 5.17% and the viability, T/C (second compound 0.000949 µM, first compound 10 µM) was 0.33%. It also gave a viability, T/C [11] of 104%, a viability, T/C [12] of 96.8% and a viability, T/C [13] of 79.4%. For the same compound, the viability, T/C [14] was 58.2%, the viability, T/C (second compound 0.003 µM, first compound 3.16 µM) was 4.18% and the viability, T/C (second compound 0.003 µM, first compound 10 µM) was 0.26%. It also gave a viability, T/C [15] of 87.5%, a viability, T/C [16] of 79.6% and a viability, T/C [17] of 80.6%. It also gave a viability, T/C [18] of 81.6%, a viability, T/C (second compound 0.00949 µM, first compound 3.16 µM) of 4.34% and a viability, T/C (second compound 0.00949 µM, first compound 10 µM) of 0.8%. It also gave a viability, T/C [19] of 100%, a viability, T/C [20] of 91.1% and a viability, T/C [21] of 77.5%. It also gave a viability, T/C [22] of 58.6%, a viability, T/C (second compound 0.03 µM, first compound 3.16 µM) of 4.55% and a viability, T/C (second compound 0.03 µM, first compound 10 µM) of 0.32%. For the same compound, the viability, T/C [23] was 85.2%, the viability, T/C [24] was 65.5% and the viability, T/C [25] was 53.1%. The viability, T/C [26] was 37.2%, the viability, T/C (second compound 0.0949 µM, first compound 3.16 µM) was 3.64% and the viability, T/C (second compound 0.0949 µM, first compound 10 µM) was 0.29%. For the same compound, the viability, T/C [27] was 41.6%, the viability, T/C [28] was 41.2% and the viability, T/C [29] was 27.3%. The viability, T/C [30] was 22.4%, the viability, T/C (second compound 0.3 µM, first compound 3.16 µM) was 3.57% and the viability, T/C (second compound 0.3 µM, first compound 10 µM) was 0.69%.

With `CC(C)n1nc(-c2ccc3oc(N)nc3c2)c2c(N)ncnc21` the viability, T/C (compound 0.000316 µM) was 104% [middle of 4 runs], the viability, T/C (compound 0.00316 µM) was 65.1% [middle of 4 runs] and the viability, T/C (compound 0.01 µM) was 40.8% [middle of 4 runs]. The viability, T/C (compound 0.0316 µM) was 23.2% [middle of 4 runs], the viability, T/C (compound 0.1 µM) was 17% [middle of 4 runs] and the IC50 (curve of compound) was 6.31 nM [middle of 4 runs].

`C=CC(=O)N1CCN(c2nc(OCC3CCCN3C)nc3c(F)c(-c4nc(N)cc(C)c4C(F)(F)F)c(Cl)cc23)C(C)C1` (centres undefined) + CCn1c(-c2cccnc2C(C)OC)c2c3cc(ccc31)N1CCOC(CC(NC(=O)C(C(C)C)N(C)C(=O)C3(F)CCN(C(=O)C#CC(C)(C)N(C)C)CC3)C(=O)N3CCCC(N3)C(=O)OCC(C)(C)C2)C1 was tested, and the IC50 [1] was over 1000 nM, the IC50 [2] was over 1000 nM and the IC50 [3] was over 1000 nM. The IC50 [4] was over 1000 nM, the IC50 [5] was over 1000 nM and the IC50 [6] was under 3.16 nM. For the same compound, the viability, T/C (second compound 0.000949 µM, first compound 0.00316 µM) was 91.1%, the viability, T/C (second compound 0.000949 µM, first compound 0.01 µM) was 92.5% and the viability, T/C [7] was 90.4%. It also gave a viability, T/C [8] of 88%, a viability, T/C [9] of 89.5% and a viability, T/C [10] of 116%. The viability, T/C (second compound 0.003 µM, first compound 0.00316 µM) was 95.5%, the viability, T/C (second compound 0.003 µM, first compound 0.01 µM) was 85.6% and the viability, T/C [11] was 99.5%. For the same compound, the viability, T/C [12] was 87.7%, the viability, T/C [13] was 80.7% and the viability, T/C [14] was 89.6%. For the same compound, the viability, T/C (second compound 0.00949 µM, first compound 0.00316 µM) was 89.6%, the viability, T/C (second compound 0.00949 µM, first compound 0.01 µM) was 95.1% and the viability, T/C [15] was 88.4%. The viability, T/C [16] was 99%, the viability, T/C [17] was 101% and the viability, T/C [18] was 87.3%. It also gave a viability, T/C (second compound 0.03 µM, first compound 0.00316 µM) of 91.1%, a viability, T/C (second compound 0.03 µM, first compound 0.01 µM) of 89.3% and a viability, T/C [19] of 78.1%. The viability, T/C [20] was 92.6%, the viability, T/C [21] was 107% and the viability, T/C [22] was 81.6%. It also gave a viability, T/C (second compound 0.0949 µM, first compound 0.00316 µM) of 78.2%, a viability, T/C (second compound 0.0949 µM, first compound 0.01 µM) of 79.1% and a viability, T/C [23] of 76.7%. The viability, T/C [24] was 85.3%, the viability, T/C [25] was 77.3% and the viability, T/C [26] was 77.4%. The viability, T/C (second compound 0.3 µM, first compound 0.00316 µM) was 51.9%, the viability, T/C (second compound 0.3 µM, first compound 0.01 µM) was 47.8% and the viability, T/C [27] was 47.7%. For the same compound, the viability, T/C [28] was 44.4%, the viability, T/C [29] was 59.9% and the viability, T/C [30] was 50.5%.
